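Five concentrations, 48 hours, 96-well plates. Here, GI50 denotes the concentration required for 50% inhibition of growth.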 Calls of active or inactive are those of the source. No stated cut-off is given here; in the data, active = GI50 up to about 1.1 µM and inactive = higher.
Columns and labels:
Assay in all cases: inhibition of tumour cell growth, NCI panel, 48 h
786-0 = system: 786-0
CAKI-1 = system: CAKI-1
COLO 205 = system: COLO 205
EKVX = system: EKVX
HCT-116 = system: HCT-116
HCT-15 = system: HCT-15
HOP-92 = system: HOP-92
LOX IMVI = system: LOX IMVI
MCF7 = system: MCF7
MDA-MB-435 = system: MDA-MB-435
MOLT-4 = system: MOLT-4
NCI-H522 = system: NCI-H522
OVCAR-4 = system: OVCAR-4
OVCAR-5 = system: OVCAR-5
OVCAR-8 = system: OVCAR-8
SF-295 = system: SF-295
SF-539 = system: SF-539
SK-MEL-5 = system: SK-MEL-5
SNB-75 = system: SNB-75
T47D = system: T47D

For `COC(=O)c1cc(C#N)[nH]c1-c1cc(Br)cs1`, the GI50 (786-0) was 19.1 µM (inactive), the GI50 (CAKI-1) was 17.5 µM (inactive) and the GI50 (COLO 205) was 14.3 µM (inactive). The GI50 (EKVX) was 16.1 µM (inactive), the GI50 (HCT-116) was 12.8 µM (inactive) and the GI50 (HCT-15) was 15.1 µM. The GI50 (HOP-92) was 3.61 µM (inactive), the GI50 (LOX IMVI) was 11.3 µM (inactive) and the GI50 (MCF7) was 7.24 µM (inactive). The GI50 (MDA-MB-435) was 13.3 µM (inactive), the GI50 (MOLT-4) was 17.9 µM (inactive) and the GI50 (NCI-H522) was 2.1 µM (inactive). The GI50 (OVCAR-4) was 4.54 µM (inactive), the GI50 (OVCAR-5) was 16.3 µM (inactive) and the GI50 (OVCAR-8) was 14.7 µM (inactive). The GI50 (SF-295) was 10 µM (inactive), the GI50 (SF-539) was 14.3 µM (inactive) and the GI50 (SK-MEL-5) was 7.73 µM (inactive). For the same compound, the GI50 (SNB-75) was 2.69 µM (inactive) and the GI50 (T47D) was 2.13 µM (inactive).

For `CC(C)C(Br)C(=O)NCC(=O)O` (stereo not given), the GI50 (786-0) was > 100 µM (inactive), the GI50 (CAKI-1) was > 100 µM (inactive) and the GI50 (COLO 205) was > 100 µM (inactive). The GI50 (EKVX) was > 100 µM (inactive), the GI50 (HCT-116) was > 100 µM (inactive) and the GI50 (HCT-15) was > 100 µM. For the same compound, the GI50 (HOP-92) was > 100 µM (inactive), the GI50 (LOX IMVI) was > 100 µM (inactive) and the GI50 (MCF7) was > 100 µM (inactive). The GI50 (MDA-MB-435) was > 100 µM (inactive), the GI50 (MOLT-4) was > 100 µM (inactive) and the GI50 (NCI-H522) was > 100 µM (inactive). For the same compound, the GI50 (OVCAR-4) was > 100 µM (inactive), the GI50 (OVCAR-5) was > 100 µM (inactive) and the GI50 (OVCAR-8) was > 100 µM (inactive). The GI50 (SF-295) was > 100 µM (inactive), the GI50 (SF-539) was > 100 µM (inactive) and the GI50 (SK-MEL-5) was > 100 µM (inactive). The GI50 (SNB-75) was > 100 µM (inactive) and the GI50 (T47D) was > 100 µM (inactive).

With `CC(=O)NNc1nc(C)c(C(/C=C/c2ccc(NC(C)=O)cc2)=N/NS(=O)(=O)c2ccc(C)cc2)s1` the GI50 (786-0) was > 100 µM (inactive), the GI50 (CAKI-1) was > 100 µM (inactive) and the GI50 (COLO 205) was > 100 µM (inactive). For the same compound, the GI50 (EKVX) was > 100 µM (inactive), the GI50 (HCT-116) was > 100 µM (inactive) and the GI50 (HCT-15) was > 100 µM. For the same compound, the GI50 (HOP-92) was > 100 µM (inactive), the GI50 (LOX IMVI) was > 100 µM (inactive) and the GI50 (MCF7) was > 100 µM (inactive). For the same compound, the GI50 (MDA-MB-435) was > 100 µM (inactive), the GI50 (MOLT-4) was > 100 µM (inactive) and the GI50 (NCI-H522) was > 100 µM (inactive). For the same compound, the GI50 (OVCAR-4) was > 100 µM (inactive), the GI50 (OVCAR-5) was > 100 µM (inactive) and the GI50 (OVCAR-8) was > 100 µM (inactive). For the same compound, the GI50 (SF-295) was 27.9 µM (inactive), the GI50 (SF-539) was > 100 µM (inactive) and the GI50 (SK-MEL-5) was > 100 µM (inactive). The GI50 (SNB-75) was > 100 µM (inactive) and the GI50 (T47D) was > 100 µM (inactive).

`CC(=O)c1ccc2c(c1)CC1(C2)Cc2cc3c(c(C(=O)O)c2C1)CCC3` (stereo not given) was tested, and the GI50 (786-0) was > 100 µM (inactive), the GI50 (CAKI-1) was > 100 µM (inactive) and the GI50 (COLO 205) was 53.1 µM (inactive). The GI50 (EKVX) was > 100 µM (inactive), the GI50 (HCT-116) was > 100 µM (inactive) and the GI50 (HCT-15) was > 100 µM. For the same compound, the GI50 (HOP-92) was 22.6 µM (inactive), the GI50 (LOX IMVI) was > 100 µM (inactive) and the GI50 (MCF7) was > 100 µM (inactive). The GI50 (MDA-MB-435) was > 100 µM (inactive), the GI50 (MOLT-4) was > 100 µM (inactive) and the GI50 (NCI-H522) was 79.6 µM (inactive). The GI50 (OVCAR-4) was 78.7 µM (inactive), the GI50 (OVCAR-5) was > 100 µM (inactive) and the GI50 (OVCAR-8) was > 100 µM (inactive). For the same compound, the GI50 (SF-295) was > 100 µM (inactive), the GI50 (SF-539) was > 100 µM (inactive) and the GI50 (SK-MEL-5) was 44.6 µM (inactive). The GI50 (SNB-75) was 61.5 µM (inactive) and the GI50 (T47D) was 53.5 µM (inactive).

With `COc1cc(C)c2c(c1C=O)Oc1c(c(C)c(O)c3c1C(O)OC3=O)OC2=O` (stereo not given) [STICTIC ACID] the GI50 (786-0) was 73.3 µM (inactive), the GI50 (CAKI-1) was > 100 µM (inactive) and the GI50 (COLO 205) was 28.3 µM (inactive). For the same compound, the GI50 (EKVX) was 32.6 µM (inactive), the GI50 (HCT-116) was 36.8 µM (inactive) and the GI50 (HCT-15) was 17.6 µM. The GI50 (HOP-92) was 99.3 µM (inactive), the GI50 (LOX IMVI) was 28.4 µM (inactive) and the GI50 (MCF7) was 22.4 µM (inactive). For the same compound, the GI50 (MDA-MB-435) was 50.5 µM (inactive), the GI50 (MOLT-4) was 17.6 µM (inactive) and the GI50 (NCI-H522) was 24.9 µM (inactive). The GI50 (OVCAR-4) was 25.5 µM (inactive), the GI50 (OVCAR-5) was > 100 µM (inactive) and the GI50 (OVCAR-8) was 31.4 µM (inactive). For the same compound, the GI50 (SF-295) was 49.2 µM (inactive), the GI50 (SF-539) was 31.5 µM (inactive) and the GI50 (SK-MEL-5) was 20.2 µM (inactive). The GI50 (SNB-75) was 26.6 µM (inactive) and the GI50 (T47D) was 17.6 µM (inactive).

With `COC(=O)NC1=NNC(=O)c2ccccc2N1` the GI50 (786-0) was > 100 µM (inactive), the GI50 (CAKI-1) was > 100 µM (inactive) and the GI50 (COLO 205) was > 100 µM (inactive). For the same compound, the GI50 (EKVX) was > 100 µM (inactive), the GI50 (HCT-116) was > 100 µM (inactive) and the GI50 (HCT-15) was > 100 µM. For the same compound, the GI50 (HOP-92) was > 100 µM (inactive), the GI50 (LOX IMVI) was > 100 µM (inactive) and the GI50 (MCF7) was > 100 µM (inactive). For the same compound, the GI50 (MDA-MB-435) was > 100 µM (inactive), the GI50 (MOLT-4) was > 100 µM (inactive) and the GI50 (NCI-H522) was > 100 µM (inactive). For the same compound, the GI50 (OVCAR-4) was > 100 µM (inactive), the GI50 (OVCAR-5) was > 100 µM (inactive) and the GI50 (OVCAR-8) was > 100 µM (inactive). The GI50 (SF-295) was > 100 µM (inactive), the GI50 (SF-539) was > 100 µM (inactive) and the GI50 (SK-MEL-5) was > 100 µM (inactive). The GI50 (SNB-75) was > 100 µM (inactive) and the GI50 (T47D) was > 100 µM (inactive).

In the case of `CCOC(=O)/C=C/C1OC(C)(C)OC1/C=C/C(=O)OCC` (stereo not given), the GI50 (786-0) was 32.2 µM (inactive), the GI50 (CAKI-1) was 20.8 µM (inactive) and the GI50 (COLO 205) was 30.6 µM (inactive). For the same compound, the GI50 (EKVX) was 29.8 µM (inactive), the GI50 (HCT-116) was 30.8 µM (inactive) and the GI50 (HCT-15) was 23.4 µM. The GI50 (HOP-92) was 19.4 µM (inactive), the GI50 (LOX IMVI) was 27 µM (inactive) and the GI50 (MCF7) was 30.8 µM (inactive). The GI50 (MDA-MB-435) was 29 µM (inactive), the GI50 (MOLT-4) was 28.4 µM (inactive) and the GI50 (NCI-H522) was 22.5 µM (inactive). The GI50 (OVCAR-4) was 32.4 µM (inactive), the GI50 (OVCAR-5) was 29.9 µM (inactive) and the GI50 (OVCAR-8) was 25.5 µM (inactive). The GI50 (SF-295) was 48.6 µM (inactive), the GI50 (SF-539) was 40.2 µM (inactive) and the GI50 (SK-MEL-5) was 38.4 µM (inactive). The GI50 (SNB-75) was 22.6 µM (inactive) and the GI50 (T47D) was 29.4 µM (inactive).

From ChEMBL document CHEMBL1201862, “PubChem BioAssay data set” (2004)
